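96-well plates; 48 h exposure; 5 concentrations. Endpoints by linear interpolation between flanking doses. Not reached: highest tested concentration assigned. TGI: total growth inhibition.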
Assays:
Test in all cases: growth of human tumour cells (NCI), 48 h
A549 NSCLC = test system: A549 NSCLC
COLO 205 colon = test system: COLO 205 colon
HCT-15 colon = test system: HCT-15 colon
LOX IMVI melanoma = test system: LOX IMVI melanoma
M14 melanoma = test system: M14 melanoma
MALME-3M melanoma = test system: MALME-3M melanoma
MCF7 breast = test system: MCF7 breast
RXF 393 renal = test system: RXF 393 renal
SN12C renal = test system: SN12C renal
TK-10 renal = test system: TK-10 renal
U251 CNS = test system: U251 CNS
SR leukemia = test system: SR leukemia

SMILES | TGI (A549 NSCLC) [µM] | TGI (COLO 205 colon) [µM] | TGI (HCT-15 colon) [µM] | TGI (LOX IMVI melanoma) [µM] | TGI (M14 melanoma) [µM] | TGI (MALME-3M melanoma) [µM] | TGI (MCF7 breast) [µM] | TGI (RXF 393 renal) [µM] | TGI (SN12C renal) [µM] | TGI (TK-10 renal) [µM] | TGI (U251 CNS) [µM] | TGI (SR leukemia) [µM]
Cc1cc(C)nc(SCCc2cccc[n+]2C)n1 | > 100 | > 100 | > 100 | > 100 | > 100 | > 100 | > 100 | > 100 | > 100 | > 100 | > 100 | 
COc1cc(S(=O)(=O)Nc2nc(-c3ccc(N4C(=O)/C(=C/c5ccccc5[N+](=O)[O-])N=C4c4ccccc4)cc3)cs2)ccc1Cl | > 100 | > 100 | > 100 | > 100 | > 100 | > 100 | > 100 | > 100 | > 100 | > 100 | > 100 | > 100
COc1c(OC/C=C(\C)CCC=C(C)C)ccc2ccc(=O)oc12 | > 100 | > 100 | > 100 | > 100 | > 100 |  | > 100 |  | > 100 | > 100 | > 100 | > 100
Cl/C(=C\C=Nc1ccc(I)cc1)c1ccc2ccccc2c1 | > 100 | 43 | 33.8 | 30.9 | 31.5 | 42 | > 87.5 | 61.8 | 40.6 | 49.6 | 35 | 19
C=C1C(=O)OC2CC1CCC1(C)OC1CCC(C)=CCCC2(C)O (stereo not given) | 26.9 | 5.95 | 7.79 | 8.71 |  | 12.2 | 9.64 | 3.61 | 11.6 |  | 29.2 | 
Cn1c2c3ccc(Cl)cc3nc-2c(Cl)c2ccccc21 | > 100 | 40.1 | 47.1 | 72.3 | 61.3 | 34 | > 100 | 36.9 | 34.5 | 32.5 | > 100 | > 100
C=CCNS(=O)(=O)c1ncnc2nc[nH]c12 | > 100 | > 100 | > 100 | > 100 | > 100 | > 100 | > 100 | > 100 | > 100 | > 100 | > 100 | > 100
O=C1OCc2cc3cc4c(cc3c(-c3ccc5c(c3)OCO5)c21)OCO4 (tested in a mixture with another compound) |  | 75.1 | > 100 | > 100 | 32 | > 100 | > 100 | 22.5 | > 100 | 50.8 | 43.7 | > 100
COc1cc(/C=C/C(=O)CC(=O)/C=C/c2ccc(O)c(OC)c2)ccc1O | 31.7 | 28.9 | 18.5 | 15.5 | 16 | 27.4 | 34.3 | 11.3 | 25.1 | 30.6 | 16.5 | 14.6
O=C(Nc1ccc(Cl)c(Cl)c1)N1N=C2c3ccccc3CCC2C1c1ccc(Cl)cc1 (stereo not given) | > 100 | > 100 | > 100 | > 100 | > 100 | > 100 | > 100 | > 100 | > 100 | > 100 | > 100 | > 100
C=CCSSCC=C | > 100 | > 100 | > 100 | > 38.6 | > 100 | > 100 | > 100 | > 74 | > 86.9 | > 100 | > 100 | 50.2
COc1ccc(NC(=S)N/N=C(\C)c2nc3ncccc3[nH]2)cc1 | > 100 | > 100 | > 100 | 28.7 |  | > 100 | 21.6 |  | > 100 | 21.1 | > 100 | > 100

— PubChem BioAssay (NCI)
